Experiment [1] deals with glucocorticoid receptors (GR). The experiment can be described thus: GR content of murine B16-F1 cells by [3H]-labeled ligand whole-cell binding assay. The note with it: B16-F1-RFP tumors; day 15. The method, then:
Measurement of the GR Content of Cancer Cell Lines by [^3H]-Labeled Ligand Binding Assay. The GR content was measured by a whole-cell binding assay as previously described with some modifications (Harmon, J. M. & Thompson, E. B. […] Briefly 72 h-cultured melanoma cells were harvested, as indicated above, and resuspended in culture medium to a density of 5×10^6 cells/mL. […] Cells were then washed thrice in 5.0 mL of Hank's balanced salt solution and finally suspended in 1.5 mL of the same solution. […] The presence of at least 200-fold excess of unlabeled dexamethasone effectively competed out all of the binding of [^3H]-dexamethasone to specific GR. The binding of [^3H]-dexamethasone to specific GR was represented as the difference in disintegrations per minute per cell between those samples incubated with [^3H]-dexamethasone alone and those with at least 200-fold excess of unlabeled dexamethasone. Using the specific activity of [^3H]-dexamethasone, the number of receptors per cell was calculated, assuming that each receptor binds to one dexamethasone molecule.

Experiment [2] relates to A549 cells isolated from tumor-bearing mice. The experiment in a line: Chemosensitization of cultured A549 cells isolated from xenografts. The experiment is classed as cell-based, human. As to conditions: 72 h-cultured, PL 0.5 μM, Chemo 1 μM VRB and 15 μM cisPt, Pter = in vivo pretreatment. The method, then: FIGS. 18-25. Effect of piperlongumine and I-BET762, as GSH depleting and chemosensitizing agents, in in vitro growing human melanoma, pancreatic, breast, lung, liver, prostate, ovarian, and colorectal cancer cells. Cancer cells, isolated from Pter-treated tumor-bearing mice, were cultured as indicated under Methods. Chemotherapy (0.25 μM PAC.PBP in A2058 melanoma and MDA-MB-231 breast carcinoma cells; 0.125 μM PAC.PBP and 25 μM GTB in AsPC-1 pancreatic cancer cells; 1 μM VRB and 15 μM cisPt in A459 lung carcinoma cells; 0.15 μM DXR in HepG2 hepatocellular carcinoma cells; 15 nM DCT in PC-3 prostate carcinoma cells; 0.15 μM PAC.PBP and 25 μM CarboPt in SK-OV-3 ovarian carcinoma cells; 3 μM 5-FU, 1 μM FA and 0.6 μM IRI in HT-29 colorectal carcinoma cells) was added to the cultured flasks 24 h after seeding. […]
Human A2058, MeWo and MelJuso melanoma cells, and mouse AtT-20 pituitary corticotroph tumor cells were from the American Type Culture Collection (ATCC). […] Cell numbers were determined using a Coulter Counter (Coulter Electronic Inc., Miami, Fla.). […] Cellular viability was assessed as previously reported (Mena, S. et al. Clin Cancer Res 13, 2658-2666 (2007)), by measuring trypan blue exclusion and leakage of lactate dehydrogenase activity. […]

For `COc1cc(/C=C/c2ccc(O)cc2)cc(OC)c1` [Pter, trans-3,5-dimethoxy-4′-hydroxystilbene], the “GR number (binding sites/cell)” value in experiment [1] is recorded as 112 ± 16 10^3 GR/cell. Moreover, the Viable cells in experiment [2] is reported as 1317 ± 255 ×10^6.

(Values after US11179348B2, “Combination comprising pterostilbene for the treatment of cancer” (FUNDACIÓN UNIVERSIDAD CATÓLICA DE VALENCIA SAN VICENTE …, priority 2015, dated 2021).)
